In US5985933A, “Methods for treating central and peripheral nerve pain” (Celgene Corporation, priority 1997, dated 1999):
Read-outs that look alike come from different tables or passages of the source.

Tests used:
[1] = test system: mechanical (tactile) allodynia in nerve ligation (Chung) model rats; assay: animal or person; conditions: for Duration / Time to peak effect / Max. efficacy (% MPE): Table I; for Max. efficacy (% MPE): highest dose tested; for ED50: Rattus norvegicus, ip
Method: Rats (male Sprague Dawley, Harlan Industries, Indianapolis, Ind.) are housed in ALAC approved cages using soft bedding and 12/12 hour day/night cycle, in atmospherically maintained rooms in the CTF/VA Animal Vivarium. For the nerve ligation model, rats are typically lesioned at 125-175 g body weight, while for the diabetic rat model, 275-325 gram rats are employed.
Kim SH, Chung JM: An experimental model for peripheral neuropathy produced by segmental spinal nerve ligation in the rat. Pain 50: 355-363 (1992).
Anomalous pain states evoked by nerve injury in man is believed to be modeled by effects produced by chronic peripheral nerve injury lesion in rats. To create a chronic nerve injury the L5 and L6 spinal nerves are visualized by removal of the L6 transverse process. The two spinal nerves are ligated with 6-0 silk thread […] under halothane anesthesia. […] The rats were allowed a 7 day postoperative recovery period before further studies or procedures.
Rats were placed in a clear plastic, wire mesh-bottomed cage, divided into individual compartments of 5×6×9 inches, which permitted freedom of movement while allowing access to the paws to be tested. Animals were allowed to accommodate to this environment for approximately 15 minutes, or until cage exploration behavior ceased. To assess the 50% mechanical threshold for paw withdrawal, von Frey hairs were applied to the plantar mid-hindpaw, avoiding the footpads. The eight von Frey hairs used are designated by and range from 0.4-15.1 grams (#'s3.61-5/18). Each hair was pressed perpendicularly against the paw with sufficient force to cause bending, and held for approximately 6-8 seconds. A positive response was noted if the paw was sharply withdrawn. Absence of a response was cause to present the next consecutive stronger stimulus: a positive response was cause to present the next weaker stimulus. If a change in response occurred, causing a change in the direction of stimulus presentation from descending to ascending or vice-versa, four additional data points were collected subsequent to the change. Stimuli were presented successively until either six data points were collected, or the maximum or minimum stimulus was reached. If a minimum stimulus was reached and positive responses still occurred, the threshold was assigned an arbitrary minimum value of 0.25 grams; if a maximum stimulus was presented and no response occurred, a maximum threshold value of 15 grams was assigned. The resulting pattern of responses was tabulated and the 50% response threshold computed using the formula:
log (threshold, mg×10)=Xf+k∂
Based on observations on normal, unoperated rats and sham-operated rats, the cutoff of a 15.1 g hair is selected as the upper limit for testing. (Chaplan, et al., 1994.)
Four agents were examined. […] The dose range was determined on a single rat on a 0.5 log unit dose until an endpoint of effect was reached (loss of motor function, seizure/rigidity, complete nerve blockage). Once the dose range was established, each drug was examined at a minimum of 3 doses in groups of 6 rats per dose. Groups were prepared to receive injections of drugs, or saline control, by i.p. injection. After the animals accommodated to the post-operative test environment, animals received treatment and the effects upon the tactile threshold were determined using the up-down method as described in Example 3. The following is a typical paradigm for IP application: […]

[2] = test system: mechanical (tactile) allodynia in streptozotocin diabetic rats; conditions: i.p.; for Duration / Time to peak effect: Table III; for Max. efficacy (% MPE): Table III (3, 10 and 20 mg/kg levels only); for maximum efficacy or highest % suppression of allodynia at highest dosage unaffected by toxicity: Example 6
Method: (§1) Rats are made diabetic by a single intraperitoneal injection of streptozotocin (50 mg/kg body weight) freshly dissolved in 0.9% sterile saline) in order to ablate pancreatic β cells and induce insulin deficiency. Two days later, diabetes is confirmed in streptozotocin-injected rats by measuring glucose concentration in a blood sample obtained by tail prick, using a glucose oxidase-impregnated test strip and reflectance meter (Ames Glucostix and Glucometer II, Myles Inc., Elkhart, Ind.) (Calcutt, et al., 1993). Streptozotocin-injected animals with blood glucose concentrations below 15 mmol/l are excluded from subsequent studies. Diabetic rats received thrice weekly sub-cutaneous injections of 2U heat-treated Ultralente insulin (Novo Industrie A/C, Copenhagen, Denmark) in a regime shown to prevent loss of body weight and musculature whilst allowing continued hyperglycemia. Injections were made on Monday, Wednesday and Friday and behavioral measurements made on Tuesdays and Thursdays.

[3] = test system: mechanical (tactile) allodynia in streptozotocin diabetic rats; assay: animal or person; conditions: Rattus norvegicus, ip
Method: as §1

cardiac sodium channels = conditions: Hill et al. 1988; cited from earlier work
arrhythmia in dogs = conditions: cited from earlier work
[4] = cited from earlier work
painful neuropathies = conditions: oral administration, literature; cited from earlier work
[5] = stated without a described test
[6] = Chung model rats, i.p., Example 5
[7] = 30 mg/kg, affected by toxicity/behavioral problems, not probative
[8] = read-out: ED 50 or the calculated dose for 50% suppression

| Structure (SMILES) | Duration ([1]; Chung model rats, i.p.) | Time to peak effect ([1]; Chung model rats, i.p.) | Max. efficacy (% MPE) ([1]; Chung model rats, i.p.) | ED50 [1] | Duration [2] | Time to peak effect [2] | Max. efficacy (% MPE) [2] | ED50 [3] | maximum efficacy or highest % suppression of allodynia at highest dose tested [1, 6] | % MPE ([2]; 3 mg/kg) | % MPE ([2]; 10 mg/kg) | % MPE ([2]; 20 mg/kg) | % MPE [2, 7] | maximum efficacy or highest % suppression of allodynia at highest dosage unaffected by toxicity [2] | ED50 [1, 8] | other results |
| --- | --- | --- | --- | --- | --- | --- | --- | --- | --- | --- | --- | --- | --- | --- | --- | --- |
| CCN(CC)CC(=O)Nc1c(C)cccc1C [Lidocaine, lidocaine] | 90 min | 15 min | 83 % MPE | 38 mg/kg | 30 min | 30 min | 39 % MPE | 32 mg/kg | – | – | – | – | – | – | – | – |
| Cc1cccc(C)c1OC[C@@H](C)N [R-Mexiletine, (R)-mexiletine] | – | 30 min | 12 % MPE | – | – | 15 to 30 min | 11 % MPE | – | 12%±5% | 10 % MPE | 15 % MPE | 11 % MPE | 86 % MPE | 11%±5% | – | ED 50 (in words) [1, 6]: could not be calculated due to low effect at maximum dose; binding affinity relative to (S)-mexiletine (cardiac sodium channels): twice that of (S)mexiletine; antiarrhythmic properties relative to the (S)-isomer (arrhythmia in dogs; background finding referred to): greater than two times more antiarrhythmic properties than the (S)-isomer; antiarrhythmic properties relative to the (S)-enantiomer (arrhythmia in dogs; dogs, Turgeon et al. 1991): greater antiarrhythmic properties than the (S)-enantiomer |
| Cc1cccc(C)c1OCC(C)N (racemic) [RS-Mexiletine, (R,S)-mexiletine] | 60 min | 15 to 30 min | 76 % MPE | 35 mg/kg | < 60 min | 30 to 45 min | 61 % MPE | 17 mg/kg | – | 20 % MPE | 29 % MPE | 42 % MPE | 75 % MPE | – | 35 mg/kg | therapeutic-toxic concentration range ([4]; Monk et al. 1990): 0.5 to 2.0 µg/mL; incidence of adverse side effects (tremors, diplopia, nausea and vomiting) ([4]; human, in vivo): up to 70% of patients; efficacy in painful neuropathies (painful neuropathies): has shown efficacy for a variety of painful neuropathies |
| Cc1cccc(C)c1OC[C@H](C)N [S-Mexiletine, (S)-mexiletine] | 60 min | 15 min | 79 % MPE | 14 mg/kg | 60 min | 15 to 45 min | 65 % MPE | 15 mg/kg | 79%±11% | 12 % MPE | 50 % MPE | 30 % MPE | 75 % MPE | 65%±16% | 14 mg/kg | therapeutic-toxic range [5]: 0.25 to 4 µg/mL |
